Patent US10597388B2, “Pyridazinone herbicides” (FMC CORPORATION, priority 2014, dated 2020)

Experiments:
Test in all cases: Test D controlled growth environment herbicide test, pre- and postemergence
Type in all cases: in vivo
[1] = tested on: blackgrass (Alopecurus myosuroides)
Procedure, shortened: (§1)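 Species sown in silt loam and sprayed preemergence, or grown in peat-based medium to 2–18 cm (1- to 4-leaf stage) and sprayed postemergence, with compounds in non-phytotoxic solvent plus surfactant. Visual injury scored versus controls after 14–21 d in a controlled environment, 0 (no effect) to 100 (complete control).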

[2] = tested on: chamomile (scentless chamomile, Matricaria inodora)
Procedure, shortened: as §1

[3] = tested on: canarygrass (Phalaris minor)
Procedure, shortened: as §1

[4] = tested on: deadnettle (henbit deadnettle, Lamium amplexicaule)
Procedure, shortened: as §1

kochia (Kochia scoparia) = tested on: kochia (Kochia scoparia)
Procedure, shortened: as §1

[5] = tested on: barley, spring (spring barley, Hordeum vulgare)
Procedure, shortened: as §1

[6] = tested on: foxtail, green (green foxtail, Setaria viridis)
Procedure, shortened: as §1

[7] = tested on: oilseed rape (Brassica napus)
Procedure, shortened: as §1

[8] = tested on: galium (catchweed bedstraw, Galium aparine)
Procedure, shortened: as §1

[9] = tested on: wheat, spring (spring wheat, Triticum aestivum)
Procedure, shortened: as §1

[10] = tested on: lambsquarters (Chenopodium album)
Procedure, shortened: as §1

[11] = tested on: chickweed (common chickweed, Stellaria media)
Procedure, shortened: as §1

[12] = tested on: field poppy (Papaver rhoeas)
Procedure, shortened: as §1

[13] = tested on: bromegrass, downy (downy bromegrass, Bromus tectorum)
Procedure, shortened: as §1

[14] = Postemergence, 31 g ai/ha, scale 0 to 100 (0 no effect, 100 complete control)
[15] = Postemergence, 125 g ai/ha, visual rating on scale 0 (no effect) to 100 (complete control), 14 to 21 d
[16] = Postemergence, 250 g ai/ha, scale 0 to 100 (0 no effect, 100 complete control)
[17] = Preemergence, 62 g ai/ha, scale 0 to 100 (0 no effect, 100 complete control)
[18] = Preemergence, 125 g ai/ha, scale 0 to 100 (0 no effect, 100 complete control)
[19] = Preemergence, 250 g ai/ha, scale 0 to 100, 0 no effect, 100 complete control
[20] = postemergence, 62 g ai/ha, scale 0 to 100, 0 no effect, 100 complete control

Cc1cc2ccccc2c(-c2c(O)c(C)nn(C)c2=O)c1C [Compound 34]
Blackgrass plant response rating [1, 14]: 25 | Plant response rating, Blackgrass [1, 15]: 70 | Plant response rating, Blackgrass [1, 16]: 75 | Plant response rating (scale of 0 to 100), Blackgrass ([1]; Preemergence, 31 g ai/ha): 15 | Plant response rating, Blackgrass [1, 17]: 20 | Plant response rating, Blackgrass [1, 18]: 40 | Blackgrass plant response rating [1, 19]: 65 | Plant response rating, Blackgrass [1, 20]: 40 | Chamomile plant response rating [2, 14]: 75 | Plant response rating, Chamomile [2, 15]: 100 | Plant response rating, Chamomile [2, 16]: 100 | Plant response rating, Chamomile [2, 20]: 80 | Canarygrass plant response rating [3, 14]: 30 | Plant response rating, Canarygrass [3, 15]: 75 | Plant response rating, Canarygrass [3, 16]: 85 | Plant response rating (scale of 0 to 100), Canarygrass ([3]; Preemergence, 31 g ai/ha): 20 | Plant response rating, Canarygrass [3, 17]: 50 | Plant response rating, Canarygrass [3, 18]: 90 | Plant response rating, Canarygrass [3, 19]: 95 | Plant response rating, Canarygrass [3, 20]: 65 | Deadnettle plant response rating [4, 14]: 95 | Plant response rating, Deadnettle [4, 15]: 100 | Plant response rating, Deadnettle [4, 16]: 100 | Plant response rating (scale of 0 to 100), Deadnettle ([4]; Preemergence, 31 g ai/ha): 0 | Plant response rating, Deadnettle [4, 17]: 40 | Plant response rating, Deadnettle [4, 18]: 50 | Plant response rating, Deadnettle [4, 19]: 95 | Plant response rating, Deadnettle [4, 20]: 100 | Kochia plant response rating (kochia (Kochia scoparia); [14]): 60 | Plant response rating, Kochia (kochia (Kochia scoparia); [15]): 85 | Plant response rating, Kochia (kochia (Kochia scoparia); [16]): 95 | Plant response rating (scale of 0 to 100), Kochia (kochia (Kochia scoparia); Preemergence, 31 g ai/ha): 25 | Plant response rating, Kochia (kochia (Kochia scoparia); [17]): 10 | Plant response rating, Kochia (kochia (Kochia scoparia); [18]): 15 | Plant response rating, Kochia (kochia (Kochia scoparia); [19]): 50 | Plant response rating, Kochia (kochia (Kochia scoparia); [20]): 85 | Plant response rating, Barley, Spring [5, 14]: 0 | Plant response rating, Barley, Spring [5, 15]: 0 | Plant response rating, Barley, Spring [5, 16]: 5 | Plant response rating (scale of 0 to 100), Barley, Spring ([5]; Preemergence, 31 g ai/ha): 0 | Plant response rating, Barley, Spring [5, 17]: 0 | Plant response rating, Barley, Spring [5, 18]: 0 | Barley, Spring plant response rating [5, 19]: 20 | Plant response rating, Barley, Spring [5, 20]: 0 | Foxtail, Green plant response rating [6, 14]: 40 | Plant response rating, Foxtail, Green [6, 15]: 55 | Plant response rating, Foxtail, Green [6, 16]: 70 | Plant response rating (scale of 0 to 100), Foxtail, Green ([6]; Preemergence, 31 g ai/ha): 55 | Plant response rating, Foxtail, Green [6, 17]: 60 | Plant response rating, Foxtail, Green [6, 18]: 60 | Plant response rating, Foxtail, Green [6, 19]: 75 | Plant response rating, Foxtail, Green [6, 20]: 45 | Oilseed Rape plant response rating [7, 14]: 65 | Plant response rating, Oilseed Rape [7, 15]: 75 | Plant response rating, Oilseed Rape [7, 16]: 90 | Plant response rating (scale of 0 to 100), Oilseed Rape ([7]; Preemergence, 31 g ai/ha): 10 | Plant response rating, Oilseed Rape [7, 17]: 55 | Plant response rating, Oilseed Rape [7, 18]: 50 | Plant response rating, Oilseed Rape [7, 19]: 85 | Plant response rating, Oilseed Rape [7, 20]: 70 | Galium plant response rating [8, 14]: 95 | Plant response rating, Galium [8, 15]: 100 | Plant response rating, Galium [8, 16]: 100 | Plant response rating (scale of 0 to 100), Galium ([8]; Preemergence, 31 g ai/ha): 0 | Plant response rating, Galium [8, 17]: 35 | Plant response rating, Galium [8, 18]: 80 | Plant response rating, Galium [8, 19]: 85 | Plant response rating, Galium [8, 20]: 100 | Wheat, Spring plant response rating [9, 14]: 0 | Plant response rating, Wheat, Spring [9, 15]: 15 | Plant response rating, Wheat, Spring [9, 16]: 45 | Plant response rating (scale of 0 to 100), Wheat, Spring ([9]; Preemergence, 31 g ai/ha): 0 | Plant response rating, Wheat, Spring [9, 17]: 0 | Plant response rating, Wheat, Spring [9, 18]: 25 | Plant response rating, Wheat, Spring [9, 19]: 60 | Plant response rating, Wheat, Spring [9, 20]: 10 | Lambsquarters plant response rating [10, 14]: 90 | Plant response rating, Lambsquarters [10, 15]: 100 | Plant response rating, Lambsquarters [10, 16]: 100 | Plant response rating (scale of 0 to 100), Lambsquarters ([10]; Preemergence, 31 g ai/ha): 60 | Plant response rating, Lambsquarters [10, 17]: 60 | Plant response rating, Lambsquarters [10, 18]: 95 | Plant response rating, Lambsquarters [10, 19]: 95 | Plant response rating, Lambsquarters [10, 20]: 95 | Chickweed plant response rating [11, 14]: 95 | Plant response rating, Chickweed [11, 15]: 100 | Plant response rating, Chickweed [11, 16]: 100 | Plant response rating (scale of 0 to 100), Chickweed ([11]; Preemergence, 31 g ai/ha): 85 | Plant response rating, Chickweed [11, 17]: 95 | Plant response rating, Chickweed [11, 18]: 100 | Plant response rating, Chickweed [11, 19]: 100 | Plant response rating, Chickweed [11, 20]: 100 | Field Poppy plant response rating [12, 14]: 100 | Plant response rating, Field Poppy [12, 15]: 100 | Plant response rating, Field Poppy [12, 16]: 100 | Plant response rating, Field Poppy [12, 17]: 100 | Plant response rating, Field Poppy [12, 18]: 100 | Plant response rating, Field Poppy [12, 19]: 100 | Plant response rating, Field Poppy [12, 20]: 100 | Bromegrass, Downy plant response rating [13, 14]: 20 | Plant response rating, Bromegrass, Downy [13, 15]: 40 | Plant response rating, Bromegrass, Downy [13, 16]: 70 | Plant response rating (scale of 0 to 100), Bromegrass, Downy ([13]; Preemergence, 31 g ai/ha): 0 | Plant response rating, Bromegrass, Downy [13, 17]: 50 | Plant response rating, Bromegrass, Downy [13, 18]: 50 | Plant response rating, Bromegrass, Downy [13, 19]: 80 | Plant response rating, Bromegrass, Downy [13, 20]: 30
